Experimental data taken from publication PMC4762688 (Journal of nuclear medicine : official publication, Society …, 2015).
“Also recorded” adds a separate entry of the source. Bridge positions count the residues as written; N and C are the ends. Square brackets hold non-standard residues; d marks the D form. Peptide text beside a SMILES is read from it. * marks the point of attachment. X1 = O=C(O)CN1CCN(CC(=O)O)CCN(C(CCC(=O)NCc2ccc(CN*)cc2)C(=O)O)CC1; NODAGA = O=C(O)CN1CCN(CC(=O)O)CCN(C(CCC(=O)*)C(=O)O)CC1; Tyr(3-Cl) = N[C@@H](Cc1ccc(O)c(Cl)c1)C(=O)O; X3 = NCCN(CCN)CCC(=O)NCc1ccc(CN*)cc1; Hyp = O=C(O)[C@@H]1C[C@@H](O)CN1; X2 = NCCN(CCN)CCC(=O)*

Legend:
[1] = tested on: thrombus (mural carotid artery thrombosis); experiment: Ex vivo biodistribution; conditions: crush model, biodistribution at 120 minutes
[2] = Blood clearance / pharmacokinetics from serial blood samples
[3] = tested on: thrombus (mural carotid artery thrombosis); experiment: PET / SPECT imaging in rat carotid crush injury model; type: in vivo
[4] = target: T1, immobilized fibrin (Homo sapiens, UniProt P02671+P02675+P02679); experiment: Functional fibrin-binding assay: blood plasma incubated with immobilized fibrin; conditions: blood samples collected after injection
T1 sequence (P02671 36-629 limits assumed): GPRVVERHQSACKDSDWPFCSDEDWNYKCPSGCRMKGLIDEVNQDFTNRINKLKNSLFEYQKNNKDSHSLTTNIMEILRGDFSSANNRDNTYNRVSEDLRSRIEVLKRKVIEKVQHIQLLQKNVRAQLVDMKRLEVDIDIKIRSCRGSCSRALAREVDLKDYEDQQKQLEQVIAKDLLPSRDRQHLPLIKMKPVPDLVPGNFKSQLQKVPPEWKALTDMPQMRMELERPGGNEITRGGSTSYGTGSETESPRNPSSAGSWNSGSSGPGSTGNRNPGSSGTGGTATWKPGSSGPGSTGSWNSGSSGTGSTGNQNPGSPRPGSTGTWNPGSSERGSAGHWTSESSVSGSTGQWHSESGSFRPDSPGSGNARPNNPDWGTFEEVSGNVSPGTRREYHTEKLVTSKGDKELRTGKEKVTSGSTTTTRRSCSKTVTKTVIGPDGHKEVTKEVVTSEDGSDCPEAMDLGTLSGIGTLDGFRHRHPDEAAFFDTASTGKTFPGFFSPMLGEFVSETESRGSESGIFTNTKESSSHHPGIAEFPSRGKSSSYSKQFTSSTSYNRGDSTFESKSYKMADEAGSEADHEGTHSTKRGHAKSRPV
T1 sequence (P02675 45-491 limits assumed): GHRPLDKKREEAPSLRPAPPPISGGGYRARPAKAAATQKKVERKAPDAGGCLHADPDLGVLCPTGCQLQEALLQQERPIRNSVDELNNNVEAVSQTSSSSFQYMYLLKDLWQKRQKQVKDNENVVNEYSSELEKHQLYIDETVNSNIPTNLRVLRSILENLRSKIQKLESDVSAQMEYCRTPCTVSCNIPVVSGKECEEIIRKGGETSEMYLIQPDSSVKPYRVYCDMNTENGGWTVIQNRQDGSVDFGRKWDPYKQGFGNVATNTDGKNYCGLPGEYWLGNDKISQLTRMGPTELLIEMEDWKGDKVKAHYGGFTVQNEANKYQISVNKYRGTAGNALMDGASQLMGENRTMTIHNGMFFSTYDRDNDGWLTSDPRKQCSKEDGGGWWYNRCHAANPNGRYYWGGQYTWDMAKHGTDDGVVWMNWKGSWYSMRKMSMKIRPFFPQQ
T1 sequence (P02679 27-437 isoform P02679-2 limits assumed): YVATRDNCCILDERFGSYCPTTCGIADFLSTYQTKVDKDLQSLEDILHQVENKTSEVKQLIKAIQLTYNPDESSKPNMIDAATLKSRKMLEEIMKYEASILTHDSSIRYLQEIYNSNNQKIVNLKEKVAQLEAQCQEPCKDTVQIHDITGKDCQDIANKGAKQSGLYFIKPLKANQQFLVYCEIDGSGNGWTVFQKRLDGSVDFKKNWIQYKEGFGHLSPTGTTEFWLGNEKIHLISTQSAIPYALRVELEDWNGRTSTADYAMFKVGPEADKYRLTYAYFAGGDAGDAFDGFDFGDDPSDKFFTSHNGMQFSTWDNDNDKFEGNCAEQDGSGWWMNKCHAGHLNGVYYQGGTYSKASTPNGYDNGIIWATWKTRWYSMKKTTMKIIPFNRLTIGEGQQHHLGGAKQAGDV

[5] = target: soluble fibrin fragment DD(E) (Homo sapiens, UniProt P02671+P02675+P02679, DEL433-453); type: binding; conditions: DD(E) assay
[6] = tested on: 125I-labeled thrombus; experiment: Triple-isotope SPECT/PET/CT imaging with 125I-labeled thrombus; type: in vivo, rat; conditions: ferric chloride model

Compound	thrombus uptake [1]	half-life ([2]; male, Sprague-Dawley, rat, in vivo, iv) [min]	clearance of radioactivity from blood ([2]; serial blood draws 0 to 120 minutes p.i.)	thrombus detection on PET / SPECT images [3]	fibrin binding of blood samples (plasma incubated with immobilized fibrin) [4]	displacement of the fluorescent probe [5]	localization to 125I-labeled thrombus (SPECT/PET) [6]
CC[C@H](C)[C@H](NC(=O)[C@H](Cc1c[nH]cn1)NC(=O)[C@@H]1CSSC[C@H](NC(=O)[C@H](Cc2c[nH]cn2)NC(=O)[C@H](Cc2ccccc2)NC(=O)CCN(CCN)CCN)C(=O)N2C[C@H](O)C[C@H]2C(=O)N[C@@H](Cc2ccc(O)c(Cl)c2)C(=O)N[C@@H](CC(=O)O)C(=O)N[C@@H](CC(C)C)C(=O)N1)C(=O)N[C@@H](CC(C)C)C(=O)NCc1ccc(CNC(=O)CCN(CCN)CCN)cc1 [^99mTc-FBP16, metal not drawn] (X2-FHC[Hyp][Tyr(3-Cl)]DLCHIL-X3; disulfide 3-8)	low target uptake	5.9 ± 16.2	residual radioactivity persisting in the blood even after 120 minutes	ineffective			
CC[C@H](C)[C@H](NC(=O)[C@H](Cc1c[nH]cn1)NC(=O)[C@@H]1CSSC[C@@H](NC(=O)[C@H](Cc2c[nH]cn2)NC(=O)[C@H](Cc2ccccc2)NC(=O)CCC(C(=O)O)N2CCN(CC(=O)O)CCN(CC(=O)O)CC2)C(=O)N2C[C@H](O)C[C@H]2C(=O)N[C@@H](Cc2ccc(O)c(Cl)c2)C(=O)N[C@@H](CC(=O)O)C(=O)N[C@@H](CC(C)C)C(=O)N1)C(=O)N[C@@H](CC(C)C)C(=O)NCc1ccc(CNC(=O)CCC(C(=O)O)N2CCN(CC(=O)O)CCN(CC(=O)O)CC2)cc1 (stereo partly drawn) [^64Cu-D-Cys-FBP8, metal not drawn] ({NODAGA}-FH[dC][Hyp][Tyr(3-Cl)]DLCHIL-X1; disulfide 3-8)				no uptake in the thrombus	does not bind to fibrin; also recorded: significantly lower binding	no displacement	did not reveal significant uptake at the target site
